BindingDB's records for doi:10.1021/jm990250u (Hoechst Marion Roussel, 1999)

target: Stromelysin-1 (Homo sapiens, UniProt P08254); assay: Inhibitory concentration against human matrix metalloprotease-3 (MMP-3)
Sequence (P08254 whole entry): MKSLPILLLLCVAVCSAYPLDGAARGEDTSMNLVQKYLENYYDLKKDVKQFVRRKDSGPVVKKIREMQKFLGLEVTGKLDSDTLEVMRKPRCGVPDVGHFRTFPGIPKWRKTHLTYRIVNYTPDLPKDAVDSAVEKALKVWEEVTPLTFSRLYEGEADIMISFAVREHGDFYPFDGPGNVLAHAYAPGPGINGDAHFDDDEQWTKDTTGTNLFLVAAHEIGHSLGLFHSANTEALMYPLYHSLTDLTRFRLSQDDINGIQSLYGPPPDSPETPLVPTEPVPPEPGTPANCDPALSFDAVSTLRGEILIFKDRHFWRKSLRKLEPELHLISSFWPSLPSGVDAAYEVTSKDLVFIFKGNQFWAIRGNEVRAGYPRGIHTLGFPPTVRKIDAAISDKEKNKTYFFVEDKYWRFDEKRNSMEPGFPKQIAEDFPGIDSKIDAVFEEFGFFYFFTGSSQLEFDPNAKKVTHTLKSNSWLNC

IC50, 10 µM:
CSc1nccc(-c2ccc(S(=O)(=O)N3Cc4ccccc4CC3C(=O)O)s2)n1 (configuration not stated)
O=C(NO)C1Cc2ccccc2CN1S(=O)(=O)c1cc(Br)c(Br)s1 (configuration not stated) [2-(4,5-Dibromo-thiophene-2-sulfonyl)-1,2,3,4-tetrahydro-isoquinoline-3-carboxylic acid hydroxyamide]
O=C(NO)C1Cc2ccccc2CN1S(=O)(=O)c1cc(S(=O)(=O)c2ccccc2)cs1 (configuration not stated) [2-(4-Benzenesulfonyl-thiophene-2-sulfonyl)-1,2,3,4-tetrahydro-isoquinoline-3-carboxylic acid hydroxyamide]
CCCCCCCCCCCCCCCCS(=O)(=O)N1Cc2ccccc2CC1C(=O)NO (configuration not stated) [2-(Hexadecane-1-sulfonyl)-1,2,3,4-tetrahydro-isoquinoline-3-carboxylic acid hydroxyamide]
O=C(NO)C1Cc2ccccc2CN1S(=O)(=O)Cc1ccccc1 (configuration not stated) [2-Phenylmethanesulfonyl-1,2,3,4-tetrahydro-isoquinoline-3-carboxylic acid hydroxyamide]
O=C(Nc1cccc(S(=O)(=O)N2Cc3ccccc3CC2C(=O)NO)c1)c1ccccc1O (configuration not stated) [2-[3-(2-Hydroxy-benzoylamino)-benzenesulfonyl]-1,2,3,4-tetrahydro-isoquinoline-3-carboxylic acid hydroxyamide]
COc1ccc(S(=O)(=O)N2Cc3ncn(C)c3C[C@@H]2C(=O)O)cc1 [(R)-5-(4-Methoxy-benzenesulfonyl)-1-methyl-4,5,6,7-tetrahydro-1H-imidazo[4,5-c]pyridine-6-carboxylic acid]
